{
  "source": "paper PMC11126936",
  "about": "“Reactivating Hippo by drug compounds to suppress gastric cancer and enhance chemotherapy sensitivity” (The Journal of Biological Chemistry, 2024)",
  "key": {"mice": {"system": "mice", "conditions": "ref [65]; cited from earlier work"}, "zebrafish larvae": {"system": "zebrafish larvae", "conditions": "ref [65], [66]; cited from earlier work"}, "PP2Aa [1]": {"biological_target": "T1, PP2Aa (Homo sapiens, UniProt P30153)", "T1 construct": "GST; made in house; host or cells: E. coli BL21 Codon plus (DE3)", "T1 sequence (P30153 8-589)": "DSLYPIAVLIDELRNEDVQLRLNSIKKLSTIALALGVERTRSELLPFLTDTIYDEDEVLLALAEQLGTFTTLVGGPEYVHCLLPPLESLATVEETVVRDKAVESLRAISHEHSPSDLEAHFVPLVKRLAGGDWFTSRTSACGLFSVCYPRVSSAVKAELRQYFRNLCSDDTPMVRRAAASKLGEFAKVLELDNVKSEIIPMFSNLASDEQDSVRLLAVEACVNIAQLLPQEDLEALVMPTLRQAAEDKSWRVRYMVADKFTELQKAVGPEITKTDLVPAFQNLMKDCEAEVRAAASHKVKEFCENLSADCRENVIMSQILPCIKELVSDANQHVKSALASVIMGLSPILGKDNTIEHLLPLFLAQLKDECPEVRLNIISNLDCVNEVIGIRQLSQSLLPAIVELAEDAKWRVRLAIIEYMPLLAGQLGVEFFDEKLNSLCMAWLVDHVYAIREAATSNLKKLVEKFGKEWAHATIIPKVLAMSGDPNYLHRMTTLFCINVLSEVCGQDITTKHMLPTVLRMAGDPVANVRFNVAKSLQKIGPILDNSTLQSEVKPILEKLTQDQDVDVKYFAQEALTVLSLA", "assay": "MST assay, binding to PP2Aa"}, "PP2Aa–STRN3 interaction [2]": {"biological_target": "T2, PP2Aa–STRN3 interaction (Homo sapiens, UniProt P30153)", "assay": "Co-IP of HA-PP2Aa and Flag-STRN3 in HEK293A cells", "format": "cell-based", "parameters": "expressed in transfected cells; host or cells: HEK293A"}, "PP2Aa [3]": {"biological_target": "T1, PP2Aa", "assay": "ITC binding to PP2Aa", "conditions": "25 °C", "experimental": "(§1) ITC experiments were conducted using an iTC200 instrument from Microcal at 25 °C. […] Each titration included a single […] injection followed by 19 sequential injections of […] aliquots, with a spacing of 300 s between the injections, and stirring at 1000 rpm. Data were analyzed using the ITC data analysis software (MicroCal Software, https://www.malvernpanalytical.com/en/support/product-support/software/microcal-peaq-itc-analysis-software-v141)."}, "YAP phosphorylation": {"system": "YAP phosphorylation", "conditions": "HEK293A, Flag-YAP"}, "STRN3": {"biological_target": "T3, STRN3 (Homo sapiens, UniProt Q13033)", "T3 construct": "His-SUMO; made in house; host or cells: E. coli BL21 Codon plus (DE3)", "T3 sequence (Q13033 64-145)": "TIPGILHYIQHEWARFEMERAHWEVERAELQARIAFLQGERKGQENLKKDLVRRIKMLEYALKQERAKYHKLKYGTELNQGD", "assay": "ITC binding to STRN3", "experimental": "as §1"}, "PP2Aa–STRN3 interaction [4]": {"biological_target": "T2, PP2Aa–STRN3 interaction", "assay": "GST pulldown assay, PP2Aa–STRN3", "format": "binding", "parameters": "GST; SUMO; made in house; host or cells: E. coli BL21 Codon plus (DE3)", "conditions": "recombinant GST-PP2Aa and His-Sumo-STRN3; up to 10 μM compound"}, "MNNG-induced GC tumors": {"system": "MNNG-induced GC tumors", "assay": "MNNG-induced GC mouse model", "conditions": "50 mg/kg per day DSF vs control mice"}, "AGS cells xenograft": {"system": "AGS cells xenograft", "assay": "AGS xenograft tumor model", "conditions": "intratumoral injection, five consecutive days, vs control", "protocol": "Briefly, healthy male 615 mice were maintained in pathogen-free conditions. Mice were first injected with 2 × 10^6 AGS cells/per mouse into their flanks to induce tumor formation. Once the tumor volume reached about 100 mm^3, mice were injected intratumorally with indicted inhibitors for five successive days. Two weeks later, the mice were euthanized and then their tumors were harvested and weighed."}, "GES-1 cells": {"system": "GES-1 cells", "assay": "Cell viability of non-cancerous gastric epithelial GES-1 cells", "conditions": "Homo sapiens, GES1, read-out: IC50 value, GES-1 cells"}, "[5]": {"system": "YAP target gene CTGF in HGC-27 cells", "assay": "CTGF mRNA (qPCR) in HGC-27 cells", "conditions": "48 h"}, "HGC-27 cells [6]": {"system": "HGC-27 cells", "assay": "Cell viability assay in HGC-27 cells", "format": "cell-based, human", "conditions": "for pIC50: cell viability, read-out: IC50 values in HGC-27 cells"}, "HGC-27 cells [7]": {"system": "HGC-27 cells", "assay": "Colony formation assay in HGC-27 cells", "conditions": "about 2 weeks", "protocol": "After about 2 weeks incubation, cell colonies were identified by their being stained with 1% crystal violet dye. And colonies with diameters of >1 mm were counted."}},
  "note": "pIC50, pKd: −log10 of the molar value. Like-named read-outs stand apart in the source and are kept apart here.",
  "data": [
    {"compound": "CCN(CC)C(=S)SSC(=S)N(CC)CC", "note": "[DSF, disulfiram]", "values": [
      {"measurement": "in vivo side effects in mice", "setting": "mice", "result": "reduction of body weight and glucose excretion"},
      {"measurement": "adverse effects in zebrafish larvae", "setting": "zebrafish larvae", "result": "adverse effects"},
      {"measurement": "pKd", "setting": "PP2Aa [1]", "result": 5.31},
      {"measurement": "effect on binding of STRN3 to PP2Aa", "setting": "PP2Aa [1]; compound added", "result": "readily disrupted the binding of STRN3 to PP2Aa"},
      {"measurement": "PP2Aa–STRN3 interaction in Co-IP", "setting": "PP2Aa–STRN3 interaction [2]", "result": "dramatically decreased"},
      {"measurement": "pKd", "setting": "PP2Aa [3]", "result": 5.39},
      {"measurement": "level of pYAP^Ser", "setting": "YAP phosphorylation", "result": "dose-dependently increased"},
      {"measurement": "level of pYAP^Tyr", "setting": "YAP phosphorylation", "result": "marginal effect"},
      {"measurement": "binding to STRN3", "setting": "STRN3", "result": "can specifically bind to PP2Aa but not STRN3"},
      {"measurement": "PP2Aa–STRN3 association in GST pulldown", "setting": "PP2Aa–STRN3 interaction [4]", "result": "dramatically reduced"},
      {"measurement": "Ctgf expression in tumors (RNA-Scope)", "setting": "MNNG-induced GC tumors", "result": "sharp decrease"},
      {"measurement": "area of tumors", "setting": "MNNG-induced GC tumors", "result": "substantially smaller"},
      {"measurement": "tumor weight / tumor growth", "setting": "AGS cells xenograft", "result": "modestly lower tumor weights"},
      {"measurement": "pIC50", "setting": "GES-1 cells", "result": 5.89},
      {"measurement": "mRNA levels of YAP target gene CTGF", "setting": "[5]", "result": "significantly reduced"},
      {"measurement": "pIC50", "setting": "HGC-27 cells [6]; listed as Disulfiram", "result": 6.41},
      {"measurement": "pIC50", "setting": "HGC-27 cells [6]", "result": "> 5.30"},
      {"measurement": "effect of addition of copper ion on suppression of HGC-27 cell viability by the compound", "setting": "HGC-27 cells [6]; compound-Cu complex vs compound", "result": "further dramatically enhanced"},
      {"measurement": "colony formation of HGC-27 cells", "setting": "HGC-27 cells [7]", "result": "significantly inhibited colony formation"}
    ]}
  ]
}
